Data published in patent US20240327425A1, “KRAS G12D INHIBITOR AND USE THEREOF” (SHANGHAI DE NOVO PHARMATECH CO., LTD., priority 2021, published 2024).

How the values were obtained:
[1] = test system: phosphorylation level of ERK1/2 in ASPC-1 human pancreatic cancer cells; experiment: pERK cell level assay (PHOSPHO-ERK1/2 HTRF kit); assay type: cell-based; conditions: Aspc-1 cells, 4 hours incubation
Procedure: In this experiment, the phosphorylation level of ERK1/2 in AGS human gastric cancer cells or ASPC-1 human pancreatic cancer cells was detected using PHOSPHO-ERK1/2 (THR202/TYR 204) (Cisibo, 64ERKPEH) kit, and the inhibitory effect of the compounds on KRAS G12D was investigated based on the phosphorylation level of ERK1/2.
On day 1, the density of AGS cell (ATCC) suspension was adjusted to 2.1×10^5 cells/mL, then the suspension was spread in a 96-well plate at 95 μL/well so that there were 2×10^4 cells per well, and the cell culture plate was incubated in a 37° C., 5% CO2 incubator for overnight. On day 2, the compound was serially diluted with 100% dimethyl sulfoxide, and then further diluted with a complete culture medium (RPMI-1640+10% FBS+1% PS) to make a working solution of the compound, which was added to a 96-well cell culture plate at 5 μL/well, and incubated in a 37° C., 5% CO2 incubator for 4 hours. After the incubation was completed, the culture medium was discarded, then 1× lysis buffer was added thereto at 50 μL/well, and the plate was shaken at room temperature for 30 minutes. 16 μL of lysis buffer was added to a white 384-well shallow well plate, then 4 μL of pre-formulated antibody mixture was added thereto, and the plate was sealed with microplate sealer and incubated at room temperature for overnight. On day 3, detection was performed on a TECAN M1000 Pro microplate reader using the HTRF setting, and the IC50 value of the compound was calculated.

[2] = test system: GP2D human colon cancer cells; experiment: Cell proliferation assay (Cell Titer-Glo), GP2D; assay type: cell-based; conditions: 72 hours
Procedure: (§1) On day 1, AGS human gastric cancer cells, ASPC-1 human pancreatic cancer cells, or GP2D human colon cancer cells (Nanjing Cobioer Biosciences Co. Ltd.) in the logarithmic growth phase were taken, digested with an appropriate amount of trypsin, formulated into a single cell suspension using RPMI 1640 (Gibco) medium containing 10% fetal bovine serum and 1% penicillin-streptomycin, counted to adjust the cell density, inoculated in a 96-well plate at 95 μL/well so that there were 3000 cells per well, and then the cell culture plate was incubated in a 37° C., 5% CO2 incubator for overnight. On day 2, a 10 mM concentrated stock solution of KRAS G12D inhibitor was 3-fold serially diluted with dimethyl sulfoxide solution, and then diluted with AGS complete culture medium to make a working solution, which was added to a cell culture plate at 5 μL/well so that the compound had the highest concentration of 10 μM and the lowest concentration of 0.0015 μM, and the control group was 0.5% dimethyl sulfoxide. The cell culture plate was briefly centrifuged and then incubated in a CO2 incubator for 72 hours. On day 5, the cell culture plate was taken out, added with Cell Titer-Glo (Promega) detection reagent in each well, incubated in the dark for 10 minutes, and then luminescence was detected using a microplate reader (Tecan, Infinite M1000 Pro). Data were analyzed using Graphpad software, and curve fitting was performed with four-parameter equation and the IC50 value of the inhibitor was calculated.

[3] = test system: ASPC-1 human pancreatic cancer cells; experiment: Cell proliferation assay (Cell Titer-Glo), ASPC-1; assay type: cell-based
Procedure: as §1

[4] = target: Human KRAS G12D His-tagged protein (Homo sapiens (Human), UniProt P01116, G12D); experiment: KRAS G12D binding assay (TR-FRET); conditions: GDP 20 nM, GTP-Red
Procedure: The binding ability of the compound to KRAS G12D protein was detected by TR-FRET method, and the inhibitory activity of the compound on KRAS G12D protein was evaluated. Human KRAS G12D His-tagged (Cisbio, 63ADK000CB27PEG) protein was 100-fold diluted with PPI Eu detection buffer (Cisbio, 61DB9RBF), then 5 μL of which was added to a 384-well plate and centrifuged at 2000 rpm for 40 seconds. A 10 mM concentrated stock solution of the test compound was prepared with dimethyl sulfoxide, 3-fold serially diluted, then diluted to make a working solution (0.5% DMSO) with PPI Eu detection buffer, added to a 384-well plate at 5 μL/well, with the control group added with 0.5% dimethyl sulfoxide and the highest concentration of the test compound at 10 μM, and centrifuged at 2000 rpm for 40 seconds. An 80 nM GDP standard working solution (Cisbio, 63ADK000CB27PEG) was prepared with PPI Eu detection buffer and added to a 384-well plate at 5 μL/well, with the final concentration of GDP standard working solution at 20 nM. The plate was centrifuged at 2000 rpm for 40 seconds and reacted at room temperature for 30 minutes. 1×6His Eu cryptate antibody and GTP-Red reagent (Cisbio, 63ADK000CB27PEG) were prepared with PPI Eu detection buffer, mixed in a volume ratio of 1:1, 5 μL of which was then added to a 384-well plate, centrifuged at 2000 rpm for 40 seconds, and incubated at room temperature for 30 minutes. The fluorescence intensity at 620 nm and 665 nm was detected by a microplate reader, and the inhibitory activity of the compound on KRAS G12D protein was obtained by fitting a four-parameter equation.

[5] = test system: GP2D human colon cancer cells subcutaneous xenograft tumor; experiment: In vivo pharmacodynamic experiment of subcutaneous xenograft tumor model in mice of GP2D human colon cancer cells; conditions: BALB/c nude mice; for Tumor volume (11 days, mm^3): 11 days (at grouping)
Procedure: Cell culture: GP2D human colon cancer cells were maintained in monolayer culture in DMEM culture medium containing 10% fetal bovine serum in a constant temperature incubator containing 5% CO2 at 37° C. Tumor cells were passaged twice a week. Cells in the exponential growth phase were harvested and counted for inoculation.
Experimental animals: BALB/c nude mice, 6 to 8 weeks, 18 to 22 g, purchased from Jiangsu GemPharmatech Co. Ltd.
Experimental method: GP2D cell line ([…]) was inoculated subcutaneously on the right back of experimental mice. The inoculation volume of each mouse was 0.1 mL. The growth of the tumor was observed regularly. When the tumor grew to about 150 mm^3, the mice were randomly grouped according to the tumor size and body weight, and the drug was administrated according to the administration plan shown in Table 1. The body weight and tumor size were measured twice a week throughout the experiment.
tumor volume (mm^3)=0.5×(tumor long diameter×tumor short diameter^2). Tumor size calculation formula: […]

[6] = Homo sapiens, ASPC1, pERK1/2 (THR202/TYR204)
[7] = Homo sapiens, ASPC1, Aspc-1, 72 hours

Human KRAS G12D His-tagged protein, sequence (P01116-2 other isoform, or with tags, fused parts or gaps G12D): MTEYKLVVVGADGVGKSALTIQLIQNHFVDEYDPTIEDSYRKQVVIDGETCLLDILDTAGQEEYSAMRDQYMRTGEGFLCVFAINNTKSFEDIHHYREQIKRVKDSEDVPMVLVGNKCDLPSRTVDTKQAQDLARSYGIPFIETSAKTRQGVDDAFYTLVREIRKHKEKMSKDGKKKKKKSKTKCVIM

Compound | IC50 ([1]; pERK1/2 (THR202/TYR204)) [nM] | IC50 [2] [nM] | IC50 ([3]; Aspc-1, 72 hours) [nM] | IC50 [4] [nM] | Tumor volume (11 days, mm^3) ([5]; 3 mg/kg i.p. twice a day) [mm^3] | Tumor volume (21 days, mm^3) ([5]; 3 mg/kg i.p. twice a day) [mm^3] | T/C (%) ([5]; 3 mg/kg i.p. twice a day) | Tumor regression rate (%) ([5]; 3 mg/kg i.p. twice a day) | Tumor volume (11 days, mm^3) ([5]; 10 mg/kg i.p. twice a day) [mm^3] | Tumor volume (21 days, mm^3) ([5]; 10 mg/kg i.p. twice a day) [mm^3] | T/C (%) ([5]; 10 mg/kg i.p. twice a day) | Tumor regression rate (%) ([5]; 10 mg/kg i.p. twice a day) | IC50 [1, 6] [nM] | IC50 ([2]; Homo sapiens) [nM] | IC50 [3, 7] [nM]
CC(Oc1nc2c3c(c(Cl)c(-c4cccc5sc(N)c(C#N)c45)c(F)c3n1)OC[C@@H]1[C@@H]3CC[C@H](CN21)N3)[C@@]12CCCN1C[C@H](F)C2 (stereo partly drawn) [Compound I-17, 2-amino-4-((5aS,6S,9R)-3-chloro-1-fluoro-13-(1-((2R,7aS)-2-fluorohexahydro-1H-pyrrolizin-7a-yl)ethoxy)-5a,6,7,8,9,10-hexahydro-5H-6,9-epiminoazepino[2′,1′:3,4][1,4]oxazepino[5,6,7-de]quinazolin-2-yl)benzo[b]thiophene-3-carbonitrile ditrifluoroacetate] | 5.58 | 0.497 | 31.9 | 7.77 |  |  |  |  |  |  |  |  |  |  | 
N#Cc1c(N)sc2cccc(-c3c(Cl)c4c5c(nc(OC[C@@]67CCCN6C[C@H](F)C7)nc5c3F)N3C[C@H]5CC[C@H](N5)[C@H]3CO4)c12 (single isomer, unassigned) [Compound I-7-2] |  |  |  | 2.44 | 140.32 ± 19.74 | 80.27 ± 11.38 | 18.6 | −39.9 | 139.69 ± 17.49 | 70.19 ± 11.89 | 15.5 | −49.8 | 0.544 | 0.095 | 1.7
N#Cc1c(N)sc2c(F)ccc(-c3c(Cl)c4c5c(nc(OC[C@@]67CCCN6C[C@H](F)C7)nc5c3F)N3C[C@H]5CC[C@H](N5)[C@H]3CO4)c12 [Compound I-11, 2-amino-4-((5aS,6S,9R)-3-chloro-1-fluoro-13-(((2R,7aS)-2-fluorohexahydro-1H-pyrrolizin-7a-yl)methoxy)-5a,6,7,8,9,10-hexahydro-5H-6,9-epiminoazepino[2′,1′:3,4][1,4]oxazepino[5,6,7-de]quinazolin-2-yl)-7-fluorobenzo[b]thiophene-3-carbonitrile] |  |  |  | 11.2 |  |  |  |  |  |  |  |  | 1.01 | 0.336 | 12.6
N#Cc1c(N)sc2ccc(F)c(-c3c(Cl)c4c5c(nc(OC[C@@]67CCCN6C[C@H](F)C7)nc5c3F)N3C[C@H]5CC[C@H](N5)[C@H]3CO4)c12 [Compound I-14, 2-amino-4-((5aS,6S,9R)-3-chloro-1-fluoro-13-(((2R,7aS)-2-fluorohexahydro-1H-pyrrolizin-7a-yl)methoxy)-5a,6,7,8,9,10-hexahydro-5H-6,9-epiminoazepino[2′,1′:3,4][1,4]oxazepino[5,6,7-de]quinazolin-2-yl)-5-fluorobenzo[b]thiophene-3-carbonitrile ditrifluoroacetate] | 1.29 | 0.124 | 6.76 | 8.52 |  |  |  |  |  |  |  |  |  |  | 
